# Measurements taken from US12396458B2, “Fused ring substituted aromatic compound and preparation method therefor, herbicidal composition, and use thereof” (Qingdao Kingagroot Chemical Compound Co., Ltd., priority 2020, dated 2025).
# Experiments:
# Assay in all cases: Weeding effect in post-emergence stage (greenhouse pot test)
# Assay type in all cases: in vivo
# Capsella bursa-pastoris = settings: 3 weeks after application, fresh weight control rate
# How it was run: (§1)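 Greenhouse pot plants sprayed at 2-3 leaf stage (2 weeks after sowing) with compound in acetone/Tween 80 plus 1.5 L/ha methyl oleate EC, at 500, 250, 125, 60, 15, 7.5 g a.i./ha. Fresh-weight growth control scored 3 weeks later on a 0-5 scale (level 5 >85%, level 0 <5%); three replicates averaged.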
# Beckmannia syzigachne = settings: 3 weeks after application, fresh weight control rate
# How it was run: as §1
# Alopecurus japonicus = settings: 3 weeks after application, fresh weight control rate
# How it was run: as §1
# Conyza japonica = settings: fresh weight control rate
# How it was run: as §1
# Setaria viridis = settings: dose 7.5 g a.i./ha, fresh weight control rate
# How it was run: as §1
# Rorippa indica = settings: dose 7.5 g a.i./ha, fresh weight control rate
# How it was run: as §1
# Eleusine indica = settings: dose 7.5 g a.i./ha, fresh weight control rate
# How it was run: as §1
# Digitaria sanguinalis = settings: dose 7.5 g a.i./ha, fresh weight control rate
# How it was run: as §1
# [1] = post-emergence, dose 15 g a.i./ha, 3 weeks after application
# [2] = post-emergence, dose 125 g a.i./ha, 3 weeks after application
# [3] = post-emergence control test, dose 7.5 g a.i./ha
smiles,measurement,setting,value
COC(=O)C12CCCC1C(c1nc(-n3c(=O)cc(C(F)(F)F)n(C)c3=O)c(F)cc1Cl)=NO2 (stereo not drawn) [Compound 521],"Activity level (growth control rate), Capsella bursa-pastoris",Capsella bursa-pastoris; dose 15 g a.i./ha,5 (Level 5: growth control rate is above 85%)
same,"Activity level (growth control rate), Beckmannia syzigachne",Beckmannia syzigachne; dose 15 g a.i./ha,5 (Level 5: growth control rate is above 85%)
same,"Activity level (growth control rate), Alopecurus japonicus",Alopecurus japonicus; dose 15 g a.i./ha,5 (Level 5: growth control rate is above 85%)
same,"Activity level (growth control rate), Conyza japonica",Conyza japonica; [1],4 (Level 4: growth control rate is greater than or equal to 60% and less than 85%)
CCOC(=O)CCC12CCCC1C(c1cc(-n3c(=O)n(C)c(=S)n(C)c3=O)c(F)cc1Cl)=NO2 (stereo not drawn) [Compound 530],"Activity level (growth control rate), Capsella bursa-pastoris",Capsella bursa-pastoris; dose 125 g a.i./ha,5 (Level 5: growth control rate is above 85%)
same,"Activity level (growth control rate), Beckmannia syzigachne",Beckmannia syzigachne; dose 125 g a.i./ha,4 (Level 4: growth control rate is greater than or equal to 60% and less than 85%)
same,"Activity level (growth control rate), Alopecurus japonicus",Alopecurus japonicus; dose 125 g a.i./ha,5 (Level 5: growth control rate is above 85%)
same,"Activity level (growth control rate), Conyza japonica",Conyza japonica; [2],4 (Level 4: growth control rate is greater than or equal to 60% and less than 85%)
CCOC(=O)CCC12CCCC1C(c1cc(-n3c(=O)cc(C(F)(F)F)n(C)c3=O)c(F)cc1Cl)=NO2 (stereo not drawn) [Compound 533],"Activity level (growth control rate), Capsella bursa-pastoris",Capsella bursa-pastoris; dose 125 g a.i./ha,5 (Level 5: growth control rate is above 85%)
same,"Activity level (growth control rate), Beckmannia syzigachne",Beckmannia syzigachne; dose 125 g a.i./ha,5 (Level 5: growth control rate is above 85%)
same,"Activity level (growth control rate), Alopecurus japonicus",Alopecurus japonicus; dose 125 g a.i./ha,5 (Level 5: growth control rate is above 85%)
same,"Activity level (growth control rate), Conyza japonica",Conyza japonica; [2],5 (Level 5: growth control rate is above 85%)
COC(=O)C12CCCC1C(c1cc(N3C(=O)C4=C(CCCC4)C3=O)c(F)cc1Cl)=NO2 (stereo not drawn) [Compound 542],"Activity level (growth control rate), Capsella bursa-pastoris",Capsella bursa-pastoris; dose 15 g a.i./ha,4 (Level 4: growth control rate is greater than or equal to 60% and less than 85%)
same,"Activity level (growth control rate), Beckmannia syzigachne",Beckmannia syzigachne; dose 15 g a.i./ha,4 (Level 4: growth control rate is greater than or equal to 60% and less than 85%)
same,"Activity level (growth control rate), Alopecurus japonicus",Alopecurus japonicus; dose 15 g a.i./ha,5 (Level 5: growth control rate is above 85%)
same,"Activity level (growth control rate), Conyza japonica",Conyza japonica; [1],4 (Level 4: growth control rate is greater than or equal to 60% and less than 85%)
COC(=O)C12CCCC1C(c1cc(-c3ncc(C(F)(F)F)cc3Cl)c(F)cc1Cl)=NO2 (stereo not drawn) [Compound 585],"Activity level (growth control rate), Capsella bursa-pastoris",Capsella bursa-pastoris; dose 15 g a.i./ha,5 (Level 5: growth control rate is above 85%)
same,"Activity level (growth control rate), Beckmannia syzigachne",Beckmannia syzigachne; dose 15 g a.i./ha,5 (Level 5: growth control rate is above 85%)
same,"Activity level (growth control rate), Alopecurus japonicus",Alopecurus japonicus; dose 15 g a.i./ha,5 (Level 5: growth control rate is above 85%)
same,"Activity level (growth control rate), Conyza japonica",Conyza japonica; [1],4 (Level 4: growth control rate is greater than or equal to 60% and less than 85%)
"CCOC(=O)C1(C)CC(c2cc(-n3c(=O)n(C)c(=S)n(C)c3=O)c(F)cc2Cl)=NO1 (stereo not drawn) [Control compound A, reference compound]","Activity level (growth control rate), Setaria viridis",Setaria viridis,2 (Level 2: growth control rate is greater than or equal to 20% and less than 40%)
same,"Activity level (growth control rate), Rorippa indica",Rorippa indica,2 (Level 2: growth control rate is greater than or equal to 20% and less than 40%)
same,"Activity level (growth control rate), Eleusine indica",Eleusine indica,3 (Level 3: growth control rate is greater than or equal to 40% and less than 60%)
same,"Activity level (growth control rate), Digitaria sanguinalis",Digitaria sanguinalis,2 (Level 2: growth control rate is greater than or equal to 20% and less than 40%)
same,"Activity level (growth control rate), Conyza japonica",Conyza japonica; [3],2 (Level 2: growth control rate is greater than or equal to 20% and less than 40%)
"CCOC(=O)C1(C)CC(c2cc(-n3c(=O)cc(C(F)(F)F)n(C)c3=O)c(F)cc2Cl)=NO1 (stereo not drawn) [Control compound B, reference compound]","Activity level (growth control rate), Setaria viridis",Setaria viridis,3 (Level 3: growth control rate is greater than or equal to 40% and less than 60%)
same,"Activity level (growth control rate), Rorippa indica",Rorippa indica,2 (Level 2: growth control rate is greater than or equal to 20% and less than 40%)
same,"Activity level (growth control rate), Eleusine indica",Eleusine indica,3 (Level 3: growth control rate is greater than or equal to 40% and less than 60%)
same,"Activity level (growth control rate), Digitaria sanguinalis",Digitaria sanguinalis,2 (Level 2: growth control rate is greater than or equal to 20% and less than 40%)
same,"Activity level (growth control rate), Conyza japonica",Conyza japonica; [3],2 (Level 2: growth control rate is greater than or equal to 20% and less than 40%)
